What all share (format): in vitro ADME
A short description of data set [1]: Metabolic stability in human hepatocytes. The conditions noted are these: cryopreserved hepatocytes. Here is the method: (§1) Cryopreserved hepatocytes were carefully thawed in a 37 °C water bath for approximately 1 min, and transferred to a tube containing pre-warmed thawing medium. The supernatants were removed and the pellets were resuspended in KHB at a final cell density of 1 × 10^6 cells/mL, based on hemocytometer counting using trypan blue exclusion. A ETN101 solution was prepared by dissolving ETN101 in water at 4 mM and diluted by KHB at the concentration of 4 μM of ETN101. Sixty microliters each of hepatocyte suspensions and 4 μM of ETN101 were added in a 96-well plate and incubated for 0, 5, 15, 30, and 45 min at 37 °C in a CO2 incubator. All incubations were conducted in triplicates. Reactions were terminated by the addition of 120 μL of ice-cold acetonitrile and followed by vortex mixing. After centrifugation at 13,000 rpm for 8 min at 4 °C, 5 μL of internal standard (IS, camptothecin in acetonitrile at 780 ng/mL) was added to 60 μL of supernatant. A 2 μL aliquot was injected into the LC-MS/MS system. The reliability of the analysis was confirmed by incorporating three different levels of quality control samples at the beginning and end of each analytical batch. The disappearance rate (k) of ETN101 was calculated by determined peak area ratio of ETN101 to IS over incubation period. Subsequently, half-life (t1/2), intrinsic clearance (Clint), and intrinsic hepatic clearance (Clint,hep) of ETN101 in human and animal hepatocytes were calculated using the following equation [34]: t1/2(min)=ln2/−k(elimination slope) ClintμL/min/10^6 cells=ln2/t1/2×μL incubation/hepatocytes (10^6 cells) Clint,hepmL/min/kg=Clint/1000×A×10^6 cells/g liver×B g liver/kg body weight […]
(§2) For the metabolic stability assay, an LC-MS/MS system was employed, consisting of an Agilent 1260 series HPLC system (Agilent Technologies Inc., Santa Clara, CA, USA) coupled to an API 4000 mass spectrometer (AB SCIEX, Concord, Vaughan, ON, Canada) equipped with a turbo electrospray interface. […] ETN101 and IS were detected using multiple reaction monitoring (MRM) mode under positive electrospray ionization (ESI). […]

For a further data set, the system named is human hepatocytes. As to the kind of experiment: Metabolite characterization in human hepatocytes. The following applies: human hepatocyte 1 h incubates of ETN101; ND:<1.2E+05 peak area. Here is the method:
We mixed 60 μL aliquots of 40 μM ETN101 in incubation medium and an equal volume of human, mouse, rat, dog, or monkey hepatocyte suspension in 96-well plates and incubated for 0 or 1 h in a CO2 incubator at 37 °C. The reactions were quenched by adding 120 µL of ice-cold acetonitrile to each well, and the cell suspension was sonicated for 5 min at 4 °C. Subsequently, centrifugation was carried out at 15,000× g for 10 min at 4 °C. Next, the supernatants were evaporated to dryness using a vacuum concentrator, and residues were re-dissolved in 70 μL of 30% acetonitrile. Each sample (5 μL aliquots) was analyzed using LC–HRMS system.
For metabolite characterization, a Vanquish HPLC system (Thermo Fisher Scientific, San José, CA, USA) coupled with a Q-Exactive Orbitrap mass spectrometer (Thermo Fisher Scientific Inc., Waltham, MA, USA) was used at Core Research Support Center for Natural Products and Medical Materials at Yeungnam University. […] The eluent from the column was directly injected into the mass spectrometer using a heated electrospray ionization (HESI) source in positive ionization mode. […] The spray voltage was 3.0 kV and the capillary temperature was 320 °C. Full scan MS^1 with a data-dependent MS^2 acquisition mode was applied to obtain MS^1 scan data ranging from m/z 80 to 900, at a resolution of 70,000, whereas data-dependent MS^2 spectra were acquired for the five most abundant peaks per cycle at a resolution of 35,000. The parallel reaction monitoring (PRM) mode was used to obtain the MS^2 spectra of putative metabolites detected at low peak intensities in the data-dependent MS^2 acquisition mode. Data were collected and interpreted using Thermo Scientific Xcalibur™ Software (Thermo Fisher Scientific).

A short description of data set [2]: Metabolic stability in rat hepatocytes. The following applies: cryopreserved hepatocytes. Here is the method: as §1, §2

In general, half-life refers to how long it takes for the measured level to halve. As a reminder, the hepatocyte CLint is a measure of how fast metabolising enzymes remove a compound, apart from limits set by blood flow. Broadly, the CLint scaled is the rate of metabolic loss divided by the concentration. In the case of `NCC(N)C(=O)Nc1ccc(-c2nc3ccccc3s2)cc1` (centres unmarked) [ETN101, 2,3-diamino-N-(4-(benzo[d]thiazol-2-yl)phenyl)propanamide], the half-life at 2 µM in data set [1] (45 min incubation at 37 °C) is 1.25 h; in data set [2] (45 min incubation at 37 °C) it was 1.15 h. Besides, the hepatocyte CLint at 2 µM in data set [1] (45 min incubation at 37 °C) stood at 18.5 µL/min/1e6 cells; in data set [2] (45 min incubation at 37 °C), 20.1 µL/min/1e6 cells. Further, the figures for the CLint scaled at 2 µM in data set [1] (scaled from Clint) and in data set [2] (scaled from Clint) were 66.1 mL/min/kg and 94.1 mL/min/kg, respectively. Further, the “Relative peak area (%)” value with human hepatocytes is recorded as 76.4%.

In the case of `Nc1ccc(-c2nc3ccccc3s2)cc1` [M1, 2-(4-aminophenyl)benzothiazole], the “Relative peak area (%)” value in the data set with human hepatocytes was found to be 21.0%.

The values are drawn from publication PMC11356571, “The Comparative Metabolism of a Novel Hepatocellular Carcinoma Therapeutic Agent, 2,3-Diamino-N-(4-(benzo[d]thiazol-2-yl)phenyl)propanamide, in Human and Animal Hepatocytes” (Metabolites, 2024).
